Assay results reported in PubChem BioAssay (NCI).
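Each compound was tested at five concentrations against cells in 96-well plates for 48 hours. GI50 marks 50% less growth. TGI is the concentration that stops growth completely.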

Columns and labels:
Assay in all cases: growth of human tumour cells (NCI), 48 h
UO-31 renal = test system: UO-31 renal
NCI/ADR-RES ovarian = test system: NCI/ADR-RES ovarian
HCC-2998 colon = test system: HCC-2998 colon
M14 melanoma = test system: M14 melanoma
OVCAR-5 ovarian = test system: OVCAR-5 ovarian
NCI-H460 lung = test system: NCI-H460 lung
TK-10 renal = test system: TK-10 renal
UACC-257 melanoma = test system: UACC-257 melanoma
CCRF-CEM leukemia = test system: CCRF-CEM leukemia
HT29 colon = test system: HT29 colon
IGROV1 ovarian = test system: IGROV1 ovarian
CAKI-1 renal = test system: CAKI-1 renal
ACHN renal = test system: ACHN renal
HL-60(TB) leukemia = test system: HL-60(TB) leukemia
SF-539 CNS = test system: SF-539 CNS
BT-549 breast = test system: BT-549 breast
DU-145 prostate = test system: DU-145 prostate
SK-MEL-2 melanoma = test system: SK-MEL-2 melanoma
HS 578T breast = test system: HS 578T breast
SK-MEL-28 melanoma = test system: SK-MEL-28 melanoma
HOP-62 NSCLC = test system: HOP-62 NSCLC
SN12C renal = test system: SN12C renal
EKVX NSCLC = test system: EKVX NSCLC
SK-MEL-5 melanoma = test system: SK-MEL-5 melanoma
NCI-H23 lung = test system: NCI-H23 lung
PC-3 prostate = test system: PC-3 prostate
NCI-H522 lung = test system: NCI-H522 lung
KM12 colon = test system: KM12 colon
HCT-15 colon = test system: HCT-15 colon
OVCAR-4 ovarian = test system: OVCAR-4 ovarian
RPMI-8226 leukemia = test system: RPMI-8226 leukemia
SNB-19 CNS = test system: SNB-19 CNS
SK-OV-3 ovarian = test system: SK-OV-3 ovarian
COLO 205 colon = test system: COLO 205 colon
OVCAR-8 ovarian = test system: OVCAR-8 ovarian
MOLT-4 leukemia = test system: MOLT-4 leukemia
SW-620 colon = test system: SW-620 colon
K-562 leukemia = test system: K-562 leukemia
UACC-62 melanoma = test system: UACC-62 melanoma
MDA-MB-435 = test system: MDA-MB-435
LOX IMVI melanoma = test system: LOX IMVI melanoma
786-0 renal = test system: 786-0 renal
A549 NSCLC = test system: A549 NSCLC
SF-295 CNS = test system: SF-295 CNS
RXF 393 renal = test system: RXF 393 renal
HOP-92 NSCLC = test system: HOP-92 NSCLC
U251 CNS = test system: U251 CNS
SF-268 CNS = test system: SF-268 CNS
NCI-H226 lung = test system: NCI-H226 lung
SR leukemia = test system: SR leukemia
MDA-MB-231 breast = test system: MDA-MB-231 breast
T-47D breast = test system: T-47D breast
SNB-75 CNS = test system: SNB-75 CNS
A498 renal = test system: A498 renal
OVCAR-3 ovarian = test system: OVCAR-3 ovarian
HCT-116 colon = test system: HCT-116 colon
MALME-3M melanoma = test system: MALME-3M melanoma

Compound `C=C1C(=O)O[C@H]2[C@H]1CC/C(COC(=O)NCc1[nH]nc3ccccc13)=C\CC[C@@]1(C)O[C@@H]21` has a GI50 (UO-31 renal) of 1.51 µM, a TGI (UO-31 renal) of 2.95 µM and a GI50 (NCI/ADR-RES ovarian) of 6.22 µM. The TGI (NCI/ADR-RES ovarian) was 22.5 µM, the GI50 (HCC-2998 colon) was 2.78 µM and the TGI (HCC-2998 colon) was 8.97 µM. It also gave a GI50 (M14 melanoma) of 2.03 µM, a TGI (M14 melanoma) of 5.49 µM and a GI50 (OVCAR-5 ovarian) of 2.59 µM. It also gave a TGI (OVCAR-5 ovarian) of 6.14 µM, a GI50 (NCI-H460 lung) of 3.9 µM and a TGI (NCI-H460 lung) of 15.5 µM. The GI50 (TK-10 renal) was 1.82 µM, the TGI (TK-10 renal) was 3.49 µM and the GI50 (UACC-257 melanoma) was 2.13 µM. It also gave a TGI (UACC-257 melanoma) of 5.01 µM, a GI50 (CCRF-CEM leukemia) of 0.337 µM and a TGI (CCRF-CEM leukemia) of 2.51 µM. For the same compound, the GI50 (HT29 colon) was 1.18 µM, the TGI (HT29 colon) was 2.69 µM and the GI50 (IGROV1 ovarian) was 2.24 µM. It also gave a TGI (IGROV1 ovarian) of 9.26 µM, a GI50 (CAKI-1 renal) of 1.37 µM and a TGI (CAKI-1 renal) of 3.91 µM. It also gave a GI50 (ACHN renal) of 1.11 µM, a TGI (ACHN renal) of 2.63 µM and a GI50 (HL-60(TB) leukemia) of 0.458 µM. For the same compound, the TGI (HL-60(TB) leukemia) was 2.73 µM, the GI50 (SF-539 CNS) was 1.82 µM and the TGI (SF-539 CNS) was 4.72 µM. For the same compound, the GI50 (BT-549 breast) was 2.86 µM, the TGI (BT-549 breast) was 8.93 µM and the GI50 (DU-145 prostate) was 1.24 µM. The TGI (DU-145 prostate) was 3.03 µM, the GI50 (SK-MEL-2 melanoma) was 4.11 µM and the TGI (SK-MEL-2 melanoma) was 15.5 µM. It also gave a GI50 (HS 578T breast) of 4.35 µM, a TGI (HS 578T breast) of 27.1 µM and a GI50 (SK-MEL-28 melanoma) of 1.69 µM. For the same compound, the TGI (SK-MEL-28 melanoma) was 3.7 µM, the GI50 (HOP-62 NSCLC) was 9.72 µM and the TGI (HOP-62 NSCLC) was 23.4 µM. For the same compound, the GI50 (SN12C renal) was 1.68 µM, the TGI (SN12C renal) was 4.64 µM and the GI50 (EKVX NSCLC) was 3.1 µM. The TGI (EKVX NSCLC) was 13.4 µM, the GI50 (SK-MEL-5 melanoma) was 2.73 µM and the TGI (SK-MEL-5 melanoma) was 10.5 µM. It also gave a GI50 (NCI-H23 lung) of 2.19 µM, a TGI (NCI-H23 lung) of 7.24 µM and a GI50 (PC-3 prostate) of 1.67 µM. The TGI (PC-3 prostate) was 5.79 µM, the GI50 (NCI-H522 lung) was 1.21 µM and the TGI (NCI-H522 lung) was 2.65 µM. For the same compound, the GI50 (KM12 colon) was 4.25 µM, the TGI (KM12 colon) was 18.1 µM and the GI50 (HCT-15 colon) was 1.07 µM. The TGI (HCT-15 colon) was 2.64 µM, the GI50 (OVCAR-4 ovarian) was 4.06 µM and the TGI (OVCAR-4 ovarian) was 17.5 µM. The GI50 (RPMI-8226 leukemia) was 0.437 µM, the TGI (RPMI-8226 leukemia) was 2.98 µM and the GI50 (SNB-19 CNS) was 5.31 µM. It also gave a TGI (SNB-19 CNS) of 19.6 µM, a GI50 (SK-OV-3 ovarian) of 11.8 µM and a TGI (SK-OV-3 ovarian) of 24.4 µM. It also gave a GI50 (COLO 205 colon) of 1.27 µM, a TGI (COLO 205 colon) of 2.93 µM and a GI50 (OVCAR-8 ovarian) of 2.67 µM. The TGI (OVCAR-8 ovarian) was 12.3 µM, the GI50 (MOLT-4 leukemia) was 1.71 µM and the TGI (MOLT-4 leukemia) was 5.97 µM. For the same compound, the GI50 (SW-620 colon) was 0.596 µM, the TGI (SW-620 colon) was 2.28 µM and the GI50 (K-562 leukemia) was 0.473 µM. For the same compound, the TGI (K-562 leukemia) was 17.5 µM, the GI50 (UACC-62 melanoma) was 1.56 µM and the TGI (UACC-62 melanoma) was 3.67 µM. It also gave a GI50 (MDA-MB-435) of 1.64 µM, a TGI (MDA-MB-435) of 4.42 µM and a GI50 (LOX IMVI melanoma) of 1.05 µM. It also gave a TGI (LOX IMVI melanoma) of 2.43 µM, a GI50 (786-0 renal) of 1.72 µM and a TGI (786-0 renal) of 3.63 µM. It also gave a GI50 (A549 NSCLC) of 8.61 µM, a TGI (A549 NSCLC) of 25.7 µM and a GI50 (SF-295 CNS) of 7.24 µM. It also gave a TGI (SF-295 CNS) of 21.8 µM, a GI50 (RXF 393 renal) of 0.719 µM and a TGI (RXF 393 renal) of 2.23 µM. The GI50 (HOP-92 NSCLC) was 2.03 µM, the TGI (HOP-92 NSCLC) was 4.11 µM and the GI50 (U251 CNS) was 3.16 µM. The TGI (U251 CNS) was 13.7 µM, the GI50 (SF-268 CNS) was 5.52 µM and the TGI (SF-268 CNS) was 20 µM. The GI50 (NCI-H226 lung) was 16.3 µM, the TGI (NCI-H226 lung) was 33.7 µM and the GI50 (SR leukemia) was 0.27 µM. It also gave a TGI (SR leukemia) of 2.89 µM, a GI50 (MDA-MB-231 breast) of 1.64 µM and a TGI (MDA-MB-231 breast) of 3.34 µM. For the same compound, the GI50 (T-47D breast) was 1.74 µM, the TGI (T-47D breast) was 5.43 µM and the GI50 (SNB-75 CNS) was 5.06 µM. The TGI (SNB-75 CNS) was 21.1 µM, the GI50 (A498 renal) was 12.6 µM and the TGI (A498 renal) was 26.3 µM. For the same compound, the GI50 (OVCAR-3 ovarian) was 1.06 µM, the TGI (OVCAR-3 ovarian) was 2.38 µM and the GI50 (HCT-116 colon) was 0.839 µM. The TGI (HCT-116 colon) was 2.53 µM, the GI50 (MALME-3M melanoma) was 2.06 µM and the TGI (MALME-3M melanoma) was 4.24 µM.
